# Assay results taken from paper PMC9571290, “Preliminary Structure–Activity Relationship Study of the MMV Pathogen Box Compound MMV675968 (2,4-Diaminoquinazoline) Unveils Novel Inhibitors of Trypanosoma brucei brucei” (Molecules, 2022).
# Where two headings read alike, the source gives them in different places.
# Experiments:
# in vitro = conditions: African green monkey
# Method: (§1) The resulting pellet was resuspended and counted in a Neubauer chamber in the presence of trypan blue to exclude nonviable cells colored in blue. Once the cell load was estimated, they were either used for the next passage in a new flask or processed for the cytotoxicity assay.
# (§2) Briefly, Vero cells at a density of 10^4 cells per well were plated in 100 µL of complete DMEM and incubated overnight to allow cell attachment. Plates were then controlled under an inverted fluorescence microscope (Lumascope LS520) to ensure adherence, sterility and cell integrity. Thereafter, culture medium from each well was carefully emptied, and plates were filled with 90 µL of fresh complete medium followed by the addition of 10 µL of serial 5-fold dilutions of compound solutions. […] Fluorescence was then read using a Magelan Infinite M200 fluorescence multiwell plate reader (Tecan) with excitation and emission wavelengths of 530 and 590 nm, respectively. The percentage of cell viability was calculated from readouts, and the median cytotoxic concentration (CC50) for each compound was deduced from concentration–response curves using GraphPad Prism 8.0 software as described above. Selectivity indexes were then determined for each test substance as follows: SI = CC50(Vero cells)/IC50(T. brucei brucei).
# [1] = system: bloodstream forms of Trypanosoma brucei brucei; assay: resazurin-based antitrypanosomal inhibition assay; format: cell-based; conditions: for pIC50 T. b. b.: Table 2
# Method: Parasites were axenically cultivated in sterile vented flasks containing complete Hirumi’s modified Iscove’s medium 9 (HMI-9) [500 mL IMDM (Iscove’s modified Dulbecco’s medium) (Gibco, Waltham, MA, USA) supplemented with 10% (v/v) heat-inactivated fetal bovine serum (HIFBS) (Sigma Aldrich), 10% (v/v) serum plus (Sigma Aldrich), HMI-9 supplement (1 mM hypoxanthine, 0.16 mM thymidine, 50 µM bathocuproine disulfonic acid, 1.5 mM cysteine, 1.25 Mm pyruvic acid, 0.2 mM 2-mercaptoethanol (Sigma Aldrich)), and 1% (v/v) penicillin–streptomycin (Sigma Aldrich) and incubated at 37 °C in a 5% CO2 atmosphere.
# The in vitro inhibitory potency of the 400 MMVPB compounds against bloodstream forms of Trypanosoma brucei brucei was evaluated using the resazurin-based inhibition assay as previously described. Briefly, parasites at their mid-logarithmic growth phase were counted, and the cell density was adjusted with fresh complete HMI-9 medium to 2 × 10^5 trypanosomes per mL. Then, 90 µL of parasite suspension was then distributed into the wells of 96-well flat-bottomed plates containing 10 µL of compounds for a final test concentration of 10 µM. […] Each assay plate was set up in duplicate and repeated two times. The percent parasite inhibition was determined for each compound based on fluorescence readouts relative to the mean fluorescence of negative control wells.
# y = 100/[1+ 10^(logIC50/99-x)H], where H is the hill coefficient or slope factor [60].
# [2] = system: kinetoplastids (T. brucei brucei and T. brucei rhodesiense); parameters: method as in MMV Pathogen Box supporting information; conditions: against kinetoplastids; ref MMV Pathogen Box supporting information; read-out: Reported IC50; cited from earlier work
# Vero cells = assay: cytotoxicity against Vero cells (resazurin viability assay); conditions: read-out: CC50 Vero; Table 2
# Method: as §1, §2
# [3] = system: bloodstream form of Trypanosoma brucei brucei; assay: parasite-killing kinetics and cidal or static effect; format: cell-based; conditions: IC90 and IC99; removal at 4 h (10) or 24 h (7), subculture in inhibitor-free medium
# Method: Thus, they were selected, and their effect at various concentrations was assessed on the proliferation rate of the bloodstream form of Trypanosoma brucei brucei using microscopic cell count. […] After specified exposure time intervals (0, 4, 8, 12, 24, 30, 36, 48, 60, 72 h), the content of each well was harvested and counted on a Neubauer hemacytometer to determine the number of mobile parasites. The obtained values were used to plot the growth curves as parasite density (cells/mL) versus incubation time using GraphPad Prism 8.0 software.
# Therefore, the ability of parasites to recover post exposure to inhibitors 10 and 7 was further evaluated. […] After that, the cells were washed three times with fresh complete medium by centrifugation at 2500 rpm for 7 min. Cell pellets were thereafter resuspended in fresh complete culture medium in a 24-well plate and subcultured under the same conditions for 68 h for compound 10 and 48 h for compound 7 to achieve the complete parasite growth pattern. Thereafter, cells were enumerated using the Neubauer cell counter at each time point. The assay was performed in duplicate, and the mean cell counts were plotted […] against time using GraphPad Prism 8.0 to assess the cidal or static effect of inhibitors.
# [4] = Trypanosoma brucei, Table 4, analogs of MMV675968, solid material, read-out: IC50 ± SD T. b. b.
# [5] = Trypanosoma brucei, Table 1, reference drugs included in MMVPB, read-out: IC50 ± SD T. b. b.
# [6] = Trypanosoma brucei, Table 1, negative log of IC50 in molar, read-out: pIC50 T. b. b. (converted)
# [7] = Table 2, MMVPB compounds with known anti-kinetoplastid activity, read-out: IC50 ± SD T. b. b.
SMILES,CC50 at 48 h (in vitro),IC50 [2],CC50 (Vero cells),"IC50 [1, 7]",pIC50 T. b. b. ([1]; negative log of IC50 in molar),also measured
COc1ccc(NCc2cnc(N)nc2N)cc1 [Analog 17],> 100000 nM,,,,,"IC50 [1, 4]: > 10000 nM"
COc1cccc(CNCc2cnc(N)nc2N)c1 [Analog 18],> 100000 nM,,,,,"IC50 [1, 4]: > 10000 nM"
COc1cccc(CNC(=O)c2cnc(N)nc2N)c1 [Analog 19],> 100000 nM,,,,,"IC50 [1, 4]: > 10000 nM"
COc1ccc(NC(=O)c2cnc(N)nc2N)cc1 [Analog 20],> 100000 nM,,,,,"IC50 [1, 4]: > 10000 nM"
COc1ccccc1NC(=O)c1cnc(N)nc1N [Analog 21],> 100000 nM,,,,,"IC50 [1, 4]: > 10000 nM"
Nc1ncc(C(=O)Nc2cccnc2)c(N)n1 [Analog 22],> 100000 nM,,,,,"IC50 [1, 4]: > 10000 nM"
Cc1ccccc1NC(=O)c1cnc(N)nc1N [Analog 23],> 100000 nM,,,,,"IC50 [1, 4]: > 10000 nM"
COc1ccc(NC(=O)c2cnc(N)nc2N)cc1OC [Analog 24],> 100000 nM,,,,,"IC50 [1, 4]: > 10000 nM"
"OC(c1cc(C(F)(F)F)nc2c(C(F)(F)F)cccc12)C1CCCCN1 (centres unmarked) [MMV000016, Mefloquine, reference compound]",11300 nM,,,,,"IC50 [1, 5]: 1600 ± 8 nM; IC50 [1, 6]: 1580 nM"
"CCN(CC)CCCCCCNc1cc(OC)cc2c(C)ccnc12 [MMV000063, Sitamaquine, reference compound]",> 100000 nM,,,,,"IC50 [1, 5]: 1500 ± 30 nM; IC50 [1, 6]: 1580 nM"
"CC1CS(=O)(=O)CCN1/N=C/c1ccc([N+](=O)[O-])o1 (centres unmarked) [MMV001499, Nifurtimox, reference compound]",> 100000 nM,,,,,"IC50 [1, 5]: 200 ± 90 nM; IC50 [1, 6]: 200 nM"
CNC(=O)C1Cc2ccccc2N1C(=O)Cc1ccc(F)cc1 (centres unmarked) [MMV188296],,490 nM,> 100000 nM,1010 ± 250 nM,5.99,
"Cc1ccc(C(=O)Nc2ccc(S(=O)(=O)O)c3cc(S(=O)(=O)O)cc(S(=O)(=O)O)c23)cc1NC(=O)c1cccc(NC(=O)Nc2cccc(C(=O)Nc3cc(C(=O)Nc4ccc(S(=O)(=O)O)c5cc(S(=O)(=O)O)cc(S(=O)(=O)O)c45)ccc3C)c2)c1 [MMV637953, Suramine, reference compound]",> 100000 nM,,,,,"IC50 [1, 5]: 80 ± 10 nM; IC50 [1, 6]: 81.3 nM"
O=C(Nc1ccc2c(c1)B(O)OC2)c1ccccc1C(F)(F)F [MMV652003],,150 nM,> 100000 nM,60 ± 40 nM,7.22,
Cc1nc(-c2ccccn2)nc(N2CCC(Cc3ccccc3)C2)c1Cl (centres unmarked) [MMV659004],,6600 nM,> 100000 nM,1900 ± 3 nM,5.72,
COc1ccc(C(=N)N)cc1-c1cn(-c2ccc(C(=N)N)cc2)nn1 [MMV675998],,250 nM,> 100000 nM,340 ± 30 nM,6.47,
CO[C@@H](C(=O)N1Cc2[nH]nc(NC(=O)c3ccc(N4CCN(C)CC4)cc3)c2C1)c1ccccc1 [MMV676600],,1020 nM,> 100000 nM,650 ± 7 nM,6.18,
Cc1ncc(-c2ccnc(Nc3ccc(S(C)(=O)=O)cc3)n2)n1C(C)C [MMV676604],,260 nM,8300 ± 1200 nM,36 ± 1 nM,7.44,

SMILES,CC50 at 48 h (in vitro),IC50 [2],CC50 (Vero cells),"IC50 [1, 7]",pIC50 T. b. b. ([1]; negative log of IC50 in molar),also measured
c1ccc(Oc2ccc(-c3cc(N4CCNCC4)[nH]n3)cc2)cc1 [MMV687706],,990 nM,41000 ± 6500 nM,1900 ± 6 nM,5.72,
N=C(N)Nc1ccc(-c2ccc(-c3ccc(N=C(N)N)c(Cl)c3)o2)cc1Cl [MMV688271],,600 nM,> 100000 nM,1070 ± 160 nM,5.97,
NCCN(C(=O)c1ccc(Cl)cc1Cl)c1ccc(OCc2ccc(Cl)cc2)cc1 [MMV688371],,< 130 nM,7500 ± 100 nM,1600 ± 100 nM,5.79,
CC1=Nc2ccc(Cl)cc2C(c2ccccc2)N1CCNC(=O)CN(C)C (centres unmarked) [MMV688410],,3800 nM,,8500 ± 100 nM,5.07,
CCCCN(CCCC)c1c(C#N)cc(S(=O)(=O)Nc2ccccc2)cc1C#N [MMV688467],,300 nM,> 100000 nM,3100 ± 500 nM,5.50,
N=C(N)c1ccc(-c2cc(-c3ccccc3)on2)cc1 [MMV688514],,4060 nM,17000 ± 2500 nM,3200 ± 300 nM,5.49,
"O=C(Cn1ccnc1[N+](=O)[O-])NCc1ccccc1 [MMV688773, Benznidazole, reference compound]",> 100000 nM,,,,,"IC50 [1, 5]: 300 ± 10 nM; IC50 [1, 6]: 302 nM"
Cc1cccnc1NC(=O)c1cccc(OCc2c(C)noc2C)c1 [MMV688793],,2070 nM,> 100000 nM,360 ± 40 nM,6.44,
O=C(NCCc1ccn(-c2ccccc2)n1)C1CCCCC1 [MMV688795],,150 nM,> 100000 nM,350 ± 20 nM,6.45,
O=C(NCc1nnc2n1CCCCC2)c1ccc(-c2ccc(F)cc2)o1 [MMV688796],,100 nM,> 100000 nM,30 ± 10 nM,7.52,
CC1CCCCN1C(=O)NCCc1coc(-c2ccc(F)cc2)n1 (centres unmarked) [MMV688797],,130 nM,> 100000 nM,60 ± 20 nM,7.22,
CS(=O)(=O)c1ccccc1C(=O)N(Cc1ccccc1)c1ccccc1 [MMV688798],,555 nM,,300 ± 25 nM,6.52,
Cc1ccc(S(=O)(=O)Nc2ccc(CN3CCN(C(=O)c4cccc(C#N)c4)CC3)cc2)cc1 [MMV689028],,140 nM,> 100000 nM,,,
COc1ccc(S(=O)(=O)Nc2ccc(CN3CCN(C(=O)c4cccc(C#N)c4)CC3)cc2)cc1 [MMV689029],,500 nM,> 100000 nM,1300 ± 600 nM,5.88,
Clc1ccc(CN2CCN(C3=NCCN3)CC2)cc1Cl [MMV689060],,31600 nM,,2400 ± 60 nM,5.61,
CC(=O)Nc1ccc(-c2noc(CC3CCCN(Cc4cccc(F)c4C)C3)n2)cc1 (centres unmarked) [MMV689061],,32300 nM,> 100000 nM,1900 ± 100 nM,5.72,
COc1ccc(C2=NN(C3CCCCCC3)C(=O)[C@@H]3CC=CC[C@H]23)cc1OCCCCOc1ccc(-c2nn[nH]n2)cc1 [MMV690027],,20 nM,> 100000 nM,2800 ± 70 nM,5.55,
"N=C(N)c1ccc(OCCCCCOc2ccc(C(=N)N)cc2)cc1 [Pentamidine, reference compound]",> 100000 nM,,,,,"IC50 [1, 5]: 2 ± 0.3 nM; IC50 [1, 6]: 2 nM; IC50 ([1]; Trypanosoma brucei, Table 4, negative log of IC50 in molar, read-out: pIC50 T. b. b. (converted)): 2.24 nM; cidal or static effect after inhibitor removal [3]: static profile"
